This note sets out measurements from US20120040951A1, “HETEROARYL COMPOUNDS USEFUL AS RAF KINASE INHIBITORS” (priority 2008, published 2012).

SMILES strings stand for the structures. Read-outs that look alike come from different tables or passages of the source.

The subject of test [1] is phospho-ERK in melanoma derived WM-266-4 cells. Description: Mechanistic cellular assay for Raf kinase activity (phospho-ERK, Bio-Plex). The conditions noted are these: treated 1-2 hr at 37° C., serum free medium, read-out: pERK EC50. The class given is cell-based. The procedure, abridged:
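WM-266-4 melanoma cells (wild-type/V600D BRaf) grown overnight in 10% FBS RPMI, then treated 1–2 h at 37 °C in serum-free RPMI with eight 3-fold dilutions of compound (from 5 mM DMSO stock, 1000× dilution). Lysate phospho-ERK1,2 quantified by Bio-Plex bead immunoassay.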

Another test addresses V599E Raf (Homo sapiens, UniProt P15056, V600E). Description: Biochemical FRET assay, mutant Raf (phosphorylation of MEK). The settings on record: 0.125 nM V599E Raf, 100 nM biotin-MEK, 25 μM ATP, read-out: Raf (mut) inhibition. On the procedure:
(1) Biochemical FRET Assay […]
Inhibitors were diluted 4-fold in 100% DMSO and added to a final concentration of 10 μM to 40 μM to a solution containing 100 nM biotin-MEK, 0.125 nM V599E Raf in 50 mM HEPES, pH 7.4, 60 mM NaCl, 3 mM MgCl2, 2 mM DTT, 0.25 mM MnCl2, 0.01% BSA, and 0.01% Tween-20 and incubated for 20 minutes at room temperature. The kinase reaction was started by the addition of 25 μM ATP to a final volume of 45 μl and allowed to progress for 60 minutes. The reaction was stopped with 15 mM EDTA and 20 nM Streptavidin-APC, 2.5 nM Polyclonal anti p-MEK1/2 (Ser217/221), 2.5 nM Eu-labeled anti-rabbit IgG were added in Lance detection buffer and 5% Superblock in PBS for a final volume of 100 μl. The detection reaction was incubated for 90 minutes at room temperature and then read on an Analyst plate reader using standard TR-FRET (time resolved fluorescence resonance energy transfer) settings for Eu and APC.
Compounds having an activity designated as “A” provided an IC50≦100 nM; compounds having an activity designated as “B” provided an IC50 of 100-1000 nM; and compounds having an activity designated as “C” provided an IC50 of 1000-10,000 nM.

Chain of V599E Raf (P15056 whole entry V600E): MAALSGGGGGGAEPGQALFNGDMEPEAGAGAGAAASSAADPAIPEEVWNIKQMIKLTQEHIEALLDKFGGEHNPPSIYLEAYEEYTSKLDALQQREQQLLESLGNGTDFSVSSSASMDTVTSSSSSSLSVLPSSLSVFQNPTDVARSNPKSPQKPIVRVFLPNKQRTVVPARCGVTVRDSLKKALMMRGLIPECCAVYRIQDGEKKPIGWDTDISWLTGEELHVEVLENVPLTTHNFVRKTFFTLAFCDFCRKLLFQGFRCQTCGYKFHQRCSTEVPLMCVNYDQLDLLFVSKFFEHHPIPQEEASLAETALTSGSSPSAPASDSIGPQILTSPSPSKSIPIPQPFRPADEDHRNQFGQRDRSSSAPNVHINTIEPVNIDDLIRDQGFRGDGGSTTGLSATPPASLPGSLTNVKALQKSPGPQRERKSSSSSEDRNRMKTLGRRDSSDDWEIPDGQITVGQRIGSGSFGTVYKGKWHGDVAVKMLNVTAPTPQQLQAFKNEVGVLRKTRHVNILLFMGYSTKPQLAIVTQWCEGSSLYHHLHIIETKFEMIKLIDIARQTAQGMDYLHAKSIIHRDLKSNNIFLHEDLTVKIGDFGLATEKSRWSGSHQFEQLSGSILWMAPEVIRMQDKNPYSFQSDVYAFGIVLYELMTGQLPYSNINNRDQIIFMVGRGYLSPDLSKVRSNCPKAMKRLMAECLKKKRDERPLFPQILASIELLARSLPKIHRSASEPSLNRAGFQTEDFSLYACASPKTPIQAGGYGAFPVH

Consider `COC(=O)c1cc(Nc2ncc(C(C)NC(=O)c3cc4c(cn3)ncn4C)s2)cc(C(C)(C)C)c1` (stereo not shown) [Example 351], for which the EC50 in test [1] (Homo sapiens) fell in the range of 100 to 1000 nM. Besides, the IC50 on V599E Raf is no more than 100 nM.
For `C[C@@H](NC(=O)c1cc2c(cn1)ncn2C)c1cnc(Nc2ccc(C(F)(F)F)nc2)s1` (single isomer, unassigned) [Example 266], the EC50 in test [1] (Homo sapiens) lay in the range of 1000 to 10000 nM. In addition, at V599E Raf, the IC50 lay in the range of 100 to 1000 nM.
Taken in the same sequence, the figures for `COCCOc1cc(C(F)(F)F)ccc1Nc1ncc(C(C)NC(=O)c2cc3c(cn2)ncn3C)s1` (stereo not shown) [Example 282] were 100 to 1000 nM and no more than 100 nM.
Taken in the same sequence, the figures for `C[C@@H](NC(=O)c1cn[nH]c1-c1ccccc1)c1ncc(C(=O)Nc2cc(C(F)(F)F)c(Cl)cn2)s1` [Example 107] were 100 to 1000 nM and no more than 100 nM.
`CNC(=O)Cn1cnc2cnc(C(=O)NC(C)c3cnc(Nc4ccc(C(F)(F)F)cc4)s3)cc21` (stereo not shown) [Example 356]: the EC50 in test [1] (Homo sapiens) lay in the range of 100 to 1000 nM. The IC50 at V599E Raf was no more than 100 nM.
Taken in the same sequence, the figures for `C[C@H](NC(=O)c1cc2c(cn1)ncn2C)c1cnc(Nc2ccc(C(F)(F)F)cc2)s1` [Example 3] were 1000 to 10000 nM and no more than 100 nM.
For the compound `C[C@@H](NC(=O)c1cc2c(cn1)ncn2C1CN(S(C)(=O)=O)C1)c1cnc(Nc2ccc(C(F)(F)F)cc2)s1` [Example 346], the EC50 in test [1] (Homo sapiens) is no more than 100 nM. Also, at V599E Raf, the IC50 was no more than 100 nM.
As for `CC(NC(=O)c1cc2c(cn1)ncn2C)c1cnc(Nc2ccc(C(F)(F)F)cn2)cn1` (stereo not shown) [Example 264], in test [1], the EC50 is 100 to 1000 nM. Besides, the IC50 at V599E Raf is no more than 100 nM.
Turning to `CC(NC(=O)c1cc2c(cn1)ncn2C)c1ccc(Nc2ccc(C(F)(F)F)cc2)nc1` (stereo not shown) [Example 339], the EC50 in test [1] (Homo sapiens) was 100 to 1000 nM. In addition, the IC50 at V599E Raf is no more than 100 nM.
The matching figures for `CC(NC(=O)c1cnc2nccn2c1)c1cnc(Nc2ccc(C(F)(F)F)cc2)s1` (stereo not shown) [Example 309]: 1000 to 10000 nM and 100 to 1000 nM.
With `CC(=O)Nc1cccc(C(=O)N[C@H](C)c2ncc(C(=O)Nc3cc(C(F)(F)F)c(Cl)cn3)s2)n1` [Example 93], in test [1] (Homo sapiens), the 50% effective concentration (EC50) is 1000 to 10000 nM. Also, the IC50 at V599E Raf was in the range of 100 to 1000 nM.
Taken in the same sequence, the figures for `C[C@@H](NC(=O)c1cc2c(cn1)ncn2C)c1cnc(Nc2ccc(C(F)(F)F)cc2)cn1` (single isomer, unassigned) [Example 37] were no more than 100 nM and no more than 100 nM.
The matching figures for `C[C@@H](NC(=O)c1ccc2ncccc2c1)c1cc(C(=O)Nc2cnc(C(C)(C)C)nc2N)no1` [Example 65]: 1000 to 10000 nM and 100 to 1000 nM.
Taken in the same sequence, the figures for `C[C@@H](NC(=O)c1cn2c(Br)cnc2cn1)c1cnc(Nc2ccc(C(F)(F)F)cc2)s1` [Example 298] were no more than 100 nM and no more than 100 nM.
For `C[C@@H](NC(=O)c1cnn(C)c1CN1CCCC1)c1ncc(C(=O)Nc2cc(C(F)(F)F)c(Cl)cn2)s1` [Example 132], in test [1] (Homo sapiens), the EC50 lay within 100 to 1000 nM. The IC50 at V599E Raf lay in the range of 100 to 1000 nM.
With `Cc1cn(-c2cccc(C(=O)N[C@H](C)c3ncc(C(=O)Nc4cc(C(F)(F)F)c(Cl)cn4)s3)n2)cn1` [Example 334], the EC50 in test [1] (Homo sapiens) lay within 1000 to 10000 nM. Besides, on V599E Raf, the IC50 fell in the range of 100 to 1000 nM.
`CC(NC(=O)c1cn2ccnc2cn1)c1cnc(Nc2ccc(C(F)(F)F)cc2)s1` (stereo not shown) [Example 296]: in test [1] (Homo sapiens), the EC50 is 100 to 1000 nM. The IC50 on V599E Raf was no more than 100 nM.
For the compound `CC(NC(=O)c1ccc2nc(N)sc2c1)c1cnc(Nc2ccc(C(F)(F)F)cc2)s1` (stereo not shown) [Example 75], the EC50 in test [1] (Homo sapiens) is 100 to 1000 nM. Further, on V599E Raf, the IC50 was no more than 100 nM.
Turning to `Cc1nc2cc(C(=O)N[C@H](C)c3ncc(C(=O)Nc4cc(C(F)(F)F)c(Cl)cn4)s3)ccc2[nH]1` [Example 49], the EC50 in test [1] (Homo sapiens) lay in the range of 100 to 1000 nM. Also, the IC50 on V599E Raf is no more than 100 nM.
Taken in the same sequence, the figures for `C[C@@H](NC(=O)c1cc2c(cn1)ncn2C1CNC1)c1cnc(Nc2ccc(C(F)(F)F)cc2)s1` [Example 27] were 100 to 1000 nM and no more than 100 nM.
Taken in the same sequence, the figures for `C[C@@H](NC(=O)c1cc2c(cn1)ncn2C)c1cnc(Nc2ccc(C(F)(F)F)cc2)s1` [Example 4] were no more than 100 nM and no more than 100 nM.
`Cc1scnc1C(=O)N[C@H](C)c1ncc(C(=O)Nc2cc(C(F)(F)F)c(Cl)cn2)s1` [Example 96]: the EC50 in test [1] (Homo sapiens) fell in the range of 1000 to 10000 nM. Further, on V599E Raf, the IC50 was no more than 100 nM.
Taken in the same sequence, the figures for `CCn1cnc2cnc(C(=O)NC(C)c3cnc(Nc4ccc(Cl)c(C(F)(F)F)c4)cn3)cc21` (stereo not shown) [Example 233] were 100 to 1000 nM and no more than 100 nM.
Taken in the same sequence, the figures for `C[C@@H](NC(=O)c1cc2c(cn1)ncn2C1CN(CCO)C1)c1cnc(Nc2ccc(C(F)(F)F)cc2)s1` [Example 348] were no more than 100 nM and no more than 100 nM.
The matching figures for `CC(NC(=O)c1cc2c(cn1)ncn2C)c1cnc(Nc2cc(C(N)=O)cc(C(C)(C)C)c2)s1` (stereo not shown) [Example 353]: 1000 to 10000 nM and no more than 100 nM.
For the compound `CCOc1cc(C(F)(F)F)ccc1Nc1ncc(C(C)NC(=O)c2cc3c(cn2)ncn3C)s1` (stereo not shown) [Example 283], in test [1] (Homo sapiens), the EC50 lay within 100 to 1000 nM. Also, the IC50 at V599E Raf is no more than 100 nM.
Taken in the same sequence, the figures for `C[C@@H](NC(=O)c1cnn2ccccc12)c1ncc(C(=O)Nc2cc(C(F)(F)F)c(Cl)cn2)s1` [Example 86] were 100 to 1000 nM and no more than 100 nM.
Consider `CC(NC(=O)c1ncc2ncn(C)c2n1)c1cnc(Nc2ccc(C(F)(F)F)cc2)s1` (stereo not shown) [Example 190], for which the EC50 in test [1] (Homo sapiens) was in the range of 100 to 1000 nM. For the same compound, the IC50 at V599E Raf is no more than 100 nM.
The matching figures for `CCn1cnc2cnc(C(=O)NC(C)c3cnc(Nc4ccc(C(F)(F)F)nc4)s3)cc21` (stereo not shown) [Example 291]: 100 to 1000 nM and no more than 100 nM.
The matching figures for `C[C@@H](NC(=O)c1cc2c(cn1)ncn2[C@H]1CCN(C(=O)OC(C)(C)C)C1)c1cnc(Nc2ccc(C(F)(F)F)cc2)s1` [Example 29]: no more than 100 nM and no more than 100 nM.
Taken in the same sequence, the figures for `C[C@@H](NC(=O)c1ccc2[nH]ccc2c1)c1ncc(C(=O)Nc2cc(C(F)(F)F)c(Cl)cn2)s1` [Example 56] were 100 to 1000 nM and no more than 100 nM.
For the compound `CCn1cnc2cnc(C(=O)N[C@H](C)c3cnc(Nc4ccc(C(F)(F)F)cc4)cn3)cc21` [Example 174], the EC50 in test [1] (Homo sapiens) was no more than 100 nM. Moreover, on V599E Raf, the IC50 was no more than 100 nM.
Consider `C[C@H](NC(=O)c1cc2c(cn1)ncn2C)c1cnc(Nc2ccc(C(F)(F)F)nc2)s1` (single isomer, unassigned) [Example 267], for which, in test [1] (Homo sapiens), the EC50 is no more than 100 nM. In addition, on V599E Raf, the IC50 was no more than 100 nM.
On to `C[C@@H](NC(=O)c1cnn(-c2ccccc2)c1N)c1ncc(C(=O)Nc2cc(C(F)(F)F)c(Cl)cn2)s1` [Example 121], for which the EC50 in test [1] (Homo sapiens) lay within 100 to 1000 nM. Further, at V599E Raf, the IC50 was 100 to 1000 nM.
Consider `CC(NC(=O)c1cnn2ccccc12)c1ncc(C(=O)Nc2ccc(Cl)c(C(F)(F)F)c2)s1` (stereo not shown) [Example 222], for which the EC50 in test [1] (Homo sapiens) is no more than 100 nM. Further, the IC50 at V599E Raf lay in the range of 100 to 1000 nM.
The matching figures for `CC(NC(=O)c1ccnc(N2CCOCC2)c1)c1ncc(C(=O)Nc2cc(C(F)(F)F)c(Cl)cn2)s1` (stereo not shown) [Example 89]: 100 to 1000 nM and 100 to 1000 nM.
Taken in the same sequence, the figures for `Cc1nc(Nc2ccc(C(F)(F)F)cc2)sc1C(C)NC(=O)c1cc2c(cn1)ncn2C` (stereo not shown) [Example 340] were 1000 to 10000 nM and no more than 100 nM.
Taken in the same sequence, the figures for `C[C@@H](NC(=O)c1nc(NC(=O)OC(C)(C)C)cn1C)c1ncc(C(=O)Nc2cc(C(F)(F)F)c(Cl)cn2)s1` [Example 138] were 1000 to 10000 nM and 100 to 1000 nM.

The term EC50 denotes the concentration needed to bring the measured effect to its halfway point.
